According to patent publication US11083735B2, “Methods for treating sleep disorders, sleep disturbances, and related symptoms using aminosterol compositions” (Enterin, Inc., priority 2017, dated 2021):
Where “and” joins values, the source holds several entries; their conditions need not be identical. Identical values can stand only once.

Key:
[1] = tested on: elderly patient with a sleep disorder; assay: Example 1: person with sleep disturbance, oral squalamine (Kenterin), sleep diary and I-button wrist temperature; type: in vivo, human; conditions: for % Change in Hours: 125 qod
Description: An elderly patient with a sleep disorder was treated with squalamine to determine the efficacy of the drug for treating sleep disturbances. The patient was a person with a 10 year history of sleep disturbance and a history of constipation, anxiety, and anosmia for as long as they could remember. Their sleep was profoundly disturbed: they had difficulty falling asleep, awoke 3-4 times during the night, had vivid dreams and nightmares, spoke and screamed out loud during their sleep (REM-behavior disorder, RBD), often saw “apparitions” or people in the room (e.g., a cook in a top hat, priests and angels dressed in white). They slept with a night light on in an attempt to minimize these occurrences.
The patient was treated with oral squalamine (Kenterin™) starting at 100 mg qd and increasing to 200 mg qd. Sleep was monitored indirectly with the use of a temperature sensor (I-button) mounted on a wristband. The sensor was programed to record skin temperature at the wrist every 15 minutes 24 hrs a day. Data were downloaded every few weeks.
In other words, as the dose is increased, the hours of sleep increase, and as the dose was decreased, the hours of sleep decreased. The effect was immediate. Shown in FIG. 2 is the hours of sleep resulting following the following dosing schedule for squalamine: (1) 100 mg q.d., (2) 150 mg q.d., (3) 200 mg q.d., (4) 125 mg every third day, (5) 100 mg every third day, and (6) 125 mg q.o.d.
In other words, the patient was falling asleep more easily. […] Thus, not only does squalamine decrease delay in sleep onset and increase total sleep time, but it also has an effect on RBD and hallucinations, both of which occur as a result of Circadian rhythm dysfunction.

[2] = tested on: single IPAN of the myenteric plexus; assay: IPAN electrophysiology, jejunum with luminal epithelium stripped; set-up: species or system mouse; conditions: squalamine applied directly onto the myenteric plexus
Description: Intrinsic primary afferent neurons (IPANs) are believed to be normally stimulated indirectly, through release of neurotransmitters from the epithelium. Since squalamine can be readily transported across an intact intestinal epithelial layer, and can enter a neuron, altering the surface potential of its plasma membrane, an experiment was designed to determine whether the effects of squalamine on the IPAN required the presence of the luminal epithelium.
Jejunum was prepared as described in the previous experiment, except the luminal epithelium was manually stripped off the organ using forceps. Squalamine was applied directly onto the myenteric plexus from the luminal surface. Electrophysiological studies were repeated to monitor the activity of a single IPAN within the area of the release of compound. Within 5 seconds the IPAN began a series of spontaneous discharges (FIG. 13A). […] Squalamine appears to be capable of communicating directly with the ENS, in contrast to most substances that communicate with the ENS only indirectly, via their effects on the epithelium.

[3] = 100 mg q3d, days 81-83, daily values and mean
[4] = 100 mg q3d, days 81-83, daily values and mean, mean
[5] = 150 mg q3d, days 105-111, daily values and mean
[6] = 150 mg q3d, days 105-111, daily values and mean, mean
[7] = 150 mg qod, days 100-104, daily values and mean
[8] = 150 mg qod, days 100-104, daily values and mean, mean
[9] = days 53-55: 175/200 mg, daily values and Mean 200
[10] = days 53-55: 175/200 mg, daily values and Mean 200, mean

`CC(C)[C@@H](CC[C@@H](C)[C@H]1CC[C@H]2[C@@H]3[C@H](O)C[C@H]4C[C@@H](NCCCNCCCCN)CC[C@]4(C)[C@H]3CC[C@]12C)OS(=O)(=O)O` [squalamine] was tested, and the Delay [1, 3] was 30 min, the Fragments awake [1, 3] was 40 min and 30 min and the Total hrs sleep [1, 3] was 6.75 h and 7 h. The Fragments awake [1, 4] was 36 min, the Total hrs sleep [1, 4] was 6.8 h and the Delay ([1]; 125 mg q3d, days 69-80, daily values and mean) was 20 min and 30 min. For the same compound, the Delay ([1]; 125 mg q3d, days 69-80, daily values and mean, mean) was 25 min, the Delay [1, 5] was 10 min and 15 min and 20 min and the Total hrs sleep [1, 5] was 10 h and 9.50 h and 8.75 h and 9.75 h and 8 h. The Delay [1, 6] was 14 min, the Total hrs sleep [1, 6] was 9.3 h and the Delay [1, 7] was 15 min and 20 min. The Total hrs sleep [1, 7] was 9 h and 8.5 h and 7.75 h and 10 h and 9.5 h, the Delay [1, 8] was 17 min and the Total hrs sleep [1, 8] was 8.95 h. The “% Change in Hours (from base)” value ([1]; 100 qd) was “+5.3%”, the Total hrs sleep ([1]; 100 qd (mg), pre (0) 7.5) was 7.9 h and the Total hrs sleep ([1]; 125 qod (mg)) was 8.7 h. The “% Change in Hours” value ([1]; from initial pre(0)) was “+16% from initial pre(0);”, the “% Change in Hours” value ([1]; from post (0)) was “+24.3% from post (0)” and the “% Change in Hours (from base)” value ([1]; 150 qd) was “+17.3%”. For the same compound, the Total hrs sleep ([1]; 150 qd (mg)) was 8.8 h, the Total hrs sleep ([1]; 200 qd (mg), baseline 7.5) was 9.1 h and the “% Change in Hours (from base)” value ([1]; Post (0)) was −6.7%. The Total hrs sleep ([1]; Post (0), after discontinuation of squalamine) was 7.0 h, the Fragments awake ([1]; after STOP, days 62-68, daily values and mean) was 30 min and 20 min and the “diurnal rhythm (I-button recording, FIG. 7)” value ([1]; after an appropriate dose of squalamine) was “restored almost immediately”. For the same compound, the “diurnal rhythmicity (I-button, periodogram)” value ([1]; after intermittent treatment for several months) was “some diurnal rhythmicity was restored”, the “circadian rhythm (I-button, periodogram)” value ([1]; after the first week of treatment) was “still absent” and the Delay ([1]; days 53-55: 175 mg (day 53), 200 mg (days 54-55), daily values and Mean 200) was 20 min. The Fragments awake [1, 9] was 15 min and 30 min, the Total hrs sleep [1, 9] was 9.0 h and 9.25 h and the Fragments awake [1, 10] was 20 min. For the same compound, the Total hrs sleep [1, 10] was 9.1 h, the Total hrs sleep ([1]; off K, days 112-135, daily values and mean) was 4.5 h and the “RBD (vivid dreams and nightmares) and frank visual hallucinations” value ([1]; on treatment, reappeared when medication was discontinued) was “disappeared on treatment”. The “time to onset of spontaneous discharges of the IPAN” value [2] was ≤ 5 s.
